The target in series [1] is T1, Amine oxidase [flavin-containing] A (Homo sapiens, UniProt P21397).
T1 sequence (P21397 whole entry): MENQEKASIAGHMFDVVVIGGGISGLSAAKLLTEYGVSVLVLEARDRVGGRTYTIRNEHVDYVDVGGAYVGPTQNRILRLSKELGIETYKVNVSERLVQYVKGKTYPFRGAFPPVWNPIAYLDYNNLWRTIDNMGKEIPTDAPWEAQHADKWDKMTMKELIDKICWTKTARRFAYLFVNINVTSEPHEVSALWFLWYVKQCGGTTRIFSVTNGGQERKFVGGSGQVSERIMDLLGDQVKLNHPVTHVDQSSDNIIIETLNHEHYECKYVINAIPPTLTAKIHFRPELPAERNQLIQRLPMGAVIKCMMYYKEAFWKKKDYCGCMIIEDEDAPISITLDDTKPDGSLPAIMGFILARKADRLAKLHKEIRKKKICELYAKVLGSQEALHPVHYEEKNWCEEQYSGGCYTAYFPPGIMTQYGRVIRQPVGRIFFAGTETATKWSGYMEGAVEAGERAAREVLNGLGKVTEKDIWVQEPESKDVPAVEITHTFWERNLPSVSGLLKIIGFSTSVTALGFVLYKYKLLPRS
Description: Inhibition of recombinant human MAO-A expressed in Sf9 cells preincubated for 15 min followed by addition of p-tyramine and measured after 60 min by Luminex assay.

Series [2] addresses T2, Amine oxidase [flavin-containing] B (Homo sapiens, UniProt P27338).
T2 sequence (P27338 whole entry): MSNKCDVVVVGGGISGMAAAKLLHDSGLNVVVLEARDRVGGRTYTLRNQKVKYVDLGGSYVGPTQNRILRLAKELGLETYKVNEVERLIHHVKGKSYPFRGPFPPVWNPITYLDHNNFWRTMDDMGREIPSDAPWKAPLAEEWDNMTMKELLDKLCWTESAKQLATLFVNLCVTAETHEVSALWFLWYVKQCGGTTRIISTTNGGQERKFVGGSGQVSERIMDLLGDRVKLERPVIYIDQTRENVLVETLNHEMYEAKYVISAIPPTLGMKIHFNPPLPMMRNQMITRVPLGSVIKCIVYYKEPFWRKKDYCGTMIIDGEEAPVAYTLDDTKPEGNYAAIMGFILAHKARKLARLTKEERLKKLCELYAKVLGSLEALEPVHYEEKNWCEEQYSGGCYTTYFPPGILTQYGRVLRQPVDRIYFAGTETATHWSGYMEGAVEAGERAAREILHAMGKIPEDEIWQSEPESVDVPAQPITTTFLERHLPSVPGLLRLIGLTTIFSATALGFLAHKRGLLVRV
Nature of the series: Inhibition of recombinant human MAO-B expressed in Sf9 cells preincubated for 15 min followed by addition of benzylamine and measured after 60 min by Luminex assay.

The species named for a further series is Homo sapiens. Nature of the series: Selectivity index, ratio of IC50 for recombinant human MAO-A expressed in Sf9 cells to IC50 for recombinant human MAO-B expressed in Sf9 cells.
Series [3] is described as follows: Half life in Sprague dawley rat at 5 mg/kg, po measured upto 24 hrs. It is filed as ADME, organism-based. As to conditions: in vivo.
Series [4] can be described thus: AUC (0-t) in Sprague dawley rat at 5 mg/kg, po measured upto 24 hrs. It is filed as ADME, organism-based. Also noted: route oral, dose 5 mg/kg, time <=24. As to conditions: in vivo.
Series [5] in a line: Half life in Sprague dawley rat at 1 mg/kg, iv measured upto 24 hrs. It is filed as ADME, organism-based. The conditions noted are these: in vivo.
The nature of series [6]: Cmax in Sprague dawley rat at 1 mg/kg, iv measured upto 24 hrs. Format: ADME, organism-based. Also noted: route intravenous, dose 1 mg/kg, time <=24. As to conditions: in vivo.
Series [7] in a line: Volume of distribution at steady state in Sprague dawley rat at 1 mg/kg, iv measured upto 24 hrs. As to conditions: in vivo, read-out: Vdss. Format: ADME, organism-based.
Series [8] in a line: AUC (0-t) in Sprague dawley rat at 1 mg/kg, iv measured upto 24 hrs. Format: ADME, organism-based. Also noted: route intravenous, dose 1 mg/kg, time <=24. The conditions noted are these: in vivo.
Series [9] can be described thus: Oral bioavailability in Sprague dawley rat at 5 mg/kg measured upto 24 hrs. It is filed as ADME, organism-based. The conditions noted are these: in vivo.
A short description of series [10]: Clearance in Sprague dawley rat at 1 mg/kg, iv measured upto 24 hrs. Format: ADME, organism-based. The conditions noted are these: in vivo.
Series [11] is described as follows: Cmax in Sprague dawley rat at 5 mg/kg, po measured upto 24 hrs. Format: ADME, organism-based. Also noted: route oral, dose 5 mg/kg, time <=24. The conditions noted are these: in vivo.
A short description of series [12]: AUC (0-t) in Cynomolgus monkey rat at 5 mg/kg, po measured upto 24 hrs. Format: ADME, organism-based, Macaca fascicularis. Also noted: route oral, dose 5 mg/kg, time <=24. As to conditions: in vivo.
Series [13] can be described thus: Volume of distribution at steady state in Cynomolgus monkey at 1 mg/kg, iv measured upto 24 hrs. Format: ADME, organism-based, Macaca fascicularis. The conditions noted are these: in vivo, read-out: Vdss.
A short description of series [14]: Cmax in Cynomolgus monkey rat at 5 mg/kg, po measured upto 24 hrs. The conditions noted are these: in vivo. It is filed as ADME, organism-based, Macaca fascicularis. Also noted: route oral, dose 5 mg/kg, time <=24.
Series [15] can be described thus: Cmax in Cynomolgus monkey at 1 mg/kg, iv measured upto 24 hrs. It is filed as ADME, organism-based, Macaca fascicularis. Also noted: route intravenous, dose 1 mg/kg, time <=24. As to conditions: in vivo.
Series [16] can be described thus: AUC (0-t) in Cynomolgus monkey at 1 mg/kg, iv measured upto 24 hrs. It is filed as ADME, organism-based, Macaca fascicularis. Also noted: route intravenous, dose 1 mg/kg, time <=24. As to conditions: in vivo, 24 h.
A short description of series [17]: Toxicity in MPTP-induced C57BL/6 mouse model of Parkinson's disease assessed as effect on locomotor activity by measuring rearing activity at 10 mg/kg, ip pretreated for 15 mins followed by MPTP challenge and measured after 5 days post MPTP challenge. It is filed as organism-based. The conditions noted are these: in vivo, 120 h, time 5 day.
The nature of series [18]: Half life in Cynomolgus monkey at 1 mg/kg, iv measured upto 24 hrs. Format: ADME, organism-based, Macaca fascicularis. The conditions noted are these: in vivo.
Series [19] in a line: Half life in Cynomolgus monkey rat at 5 mg/kg, po measured upto 24 hrs. It is filed as ADME, organism-based, Macaca fascicularis. The conditions noted are these: in vivo.
Series [20] in a line: Oral bioavailability in Cynomolgus monkey rat at 5 mg/kg measured upto 24 hrs. Format: ADME, organism-based, Macaca fascicularis. The conditions noted are these: in vivo.

By IC50 is commonly meant the midpoint of a concentration-inhibition curve. A word on the half-life: it is the time needed for the level to fall by half in the phase considered. One may read the AUC(0-t) as the area under the concentration-time curve up to a stated or last time point. As usually defined, the Cmax is the peak of the concentration-time curve. The clearance is the volume of plasma or blood freed of the substance per unit of time.

A value given as a limit tells only on which side of the number the result lay.

Regarding `C[C@@H]1C[C@@H](C(N)=O)N(Cc2ccc(OCc3cccc(F)c3)cc2)C1`, the IC50 in series [1] came to 42.2 µM; in series [2], 2.18 µM. Further, the Ratio IC50 in the series filed under Homo sapiens stood at 19.
Consider `C[C@H]1C[C@@H](C(N)=O)N(Cc2ccc(OCc3cccc(F)c3)cc2)C1`, for which the half-life in series [3] was 0.96 h; in series [5] it was 0.73 h. The AUC(0-t) at 24 h was 176 ng·h/mL in series [4] and 209 ng·h/mL in series [8]. Besides, the IC50 in [1] amounted to 27.5 µM; in series [2] it was 0.082 µM. Also, the Cmax came to 174 ng/mL in [6] and 69.1 ng/mL in series [11]. Besides, the Vd in [7] was determined as 4.56 L/kg. For the same compound, the bioavailability in series [9] was found to be 16.9%. Further, the clearance in series [10] is 79.1 mL/min/kg. Also, the Ratio IC50 in the series listed under Homo sapiens stood at 335.
Turning to `NC(=O)[C@@H]1C[C@@H](F)CN1Cc1ccc(OCc2cccc(F)c2)cc1F`, the IC50 was 28.2 µM in series [1] and 2.19 µM in [2]. Moreover, the Ratio IC50 in the series filed under Homo sapiens amounted to 13.
For `NC(=O)[C@@H]1C[C@@H](O)CN1Cc1ccc(OCc2cccc(F)c2)cc1`, the IC50 in [2] is more than 10 µM.
For the compound `C[C@H](NCc1ccc(OCc2cccc(F)c2)cc1)C(N)=O` [SAFINAMIDE], the half-life in series [3] was 1.02 h; in series [5] it was 1.03 h; in [18], 2.74 h; in series [19], 4.6 h. Besides, the AUC(0-t) at 24 h turned out to be 795 ng·h/mL in series [4], 13100 ng·h/mL in series [12] and 253 ng·h/mL in series [8]. In addition, the Cmax in series [6] is 282 ng/mL; in [14], 1970 ng/mL; in [15] it was 1080 ng/mL; in series [11], 423 ng/mL. Further, the Vd in series [13] worked out at 7.15 L/kg; in [7], 4.21 L/kg. The compound also registered an AUCt in [16] of 2120 ng·h/mL. Besides, the bioavailability in series [9] turned out to be 63.2%; in series [20] it was 111%. This compound gave a clearance in series [10] of 65.5 mL/min/kg. Also, the Activity entry in series [17] is on record as “Non-Toxic”.
Take `NC(=O)[C@@H]1C[C@H](F)CN1Cc1ccc(OCc2cccc(F)c2)cc1F`: in [1], the IC50 is 29.4 µM. Moreover, the Ratio IC50 in the series filed under Homo sapiens is 979.
For the compound `NC(=O)[C@H]1C[C@H](F)CN1Cc1ccc(OCc2cccc(F)c2)cc1`, the IC50 in [1] was found to be 6.74 µM; in series [2], 0.709 µM. Moreover, the Ratio IC50 in the series listed under Homo sapiens worked out at 10.
As for `NC(=O)[C@@H]1C[C@@H](F)CN1Cc1ccc(OCc2cccc(F)c2)cc1`, the values for the IC50 in [1] and in series [2] were 24 µM and 0.772 µM, respectively. Moreover, the Ratio IC50 in the series listed under Homo sapiens amounted to 31.
In the same order, the values of `NC(=O)[C@@H]1C[C@H](O)CN1Cc1ccc(OCc2cccc(F)c2)cc1` are 84.5 µM, 0.431 µM and 196.
On to `Cc1cc(OCc2cccc(F)c2)ccc1CN1C[C@@H](F)C[C@H]1C(N)=O`, for which the IC50 was 20.5 µM in series [1] and 0.82 µM in series [2]. For the same compound, the Ratio IC50 in the series listed under Homo sapiens is 25.
As to `NC(=O)[C@@H]1C[C@@H](F)CN1Cc1ccc(OCc2cccc(F)c2)cc1Cl`, the IC50 in series [2] is more than 10 µM.
For `NC(=O)[C@H]1C[C@@H](F)CN1Cc1ccc(OCc2cccc(F)c2)cc1`, the IC50 in series [2] was more than 10 µM.
With `Cc1cc(OCc2cccc(F)c2)ccc1CN1C[C@H](F)C[C@H]1C(N)=O`, the IC50 in [2] was more than 10 µM.
As for `NC(=O)[C@@H]1CCCN1Cc1ccc(OCc2cccc(F)c2)cc1`, the half-life is 1.27 h in [3] and 0.37 h in series [5]. The AUC(0-t) at 24 h in series [4] is 284 ng·h/mL; in [8], 347 ng·h/mL. Further, the Cmax is 809 ng/mL in series [6] and 163 ng/mL in series [11]. Moreover, in series [7], the Vd is 1.11 L/kg. Also, the bioavailability in [9] stood at 16.3%. In addition, the clearance in [10] is 47.1 mL/min/kg. Moreover, in the series filed under Homo sapiens, the Ratio IC50 turned out to be 168.
As to `NC(=O)[C@@H]1C[C@H](F)CN1Cc1ccc(OCc2cccc(F)c2)cc1Cl`, the IC50 is 5.18 µM in series [1] and 0.14 µM in series [2]. For the same compound, in the series listed under Homo sapiens, the Ratio IC50 stood at 37.

Source of the values: ChEMBL document CHEMBL5042493, “Enhancing monoamine oxidase B inhibitory activity via chiral fluorination: Structure-activity relationship, biological evaluation, and molecular docking study” (Eur J Med Chem, 2022).
